Structures can show the parent of a compound that is named as a salt.
Key:
adrenalin = assay: Effect on the amines and reflexes: adrenalin; details: in vivo
Excerpt: (§1) In Table III below, the effects of the products on the amines and the reflexes have been summarised.

acetylcholine = assay: Effect on the amines and reflexes: acetylcholine; details: in vivo
Excerpt: as §1

central vagus = assay: Effect on the amines and reflexes: stimulation of the central vagus; details: in vivo
Excerpt: as §1

[1] = Acute intravenous toxicity in mice, products of Examples 10 to 13 (LD50); details: mouse, in vivo, i.v., group of male and female mice
Excerpt: (a) determined on a group of male and female mice,
(b) determined on a group consisting solely of female mice.

adrenergic receptors [2] = assay: Tension effects of adrenalin after intraduodenal product of Example 11; assay type: in vivo, dogs; details: Experiment A
Excerpt: (§2) The product was investigated by intraduodenal administration to dogs anaesthetised with Nembutal, in four experiments, A B C and D.

dogs [3] = assay: Hypotensive effect in dogs anaesthetised with Nembutal; assay type: in vivo
Excerpt: This hypotension manifests itself especially in a decrease in the differential pressure, the lowering of the diastolic pressure being greater than that of the systolic pressure.

peripheral vagus = assay: Effect on the amines and reflexes: stimulation of the peripheral vagus; details: in vivo
Excerpt: as §1

dogs [4] = assay: Intraduodenal administration to dogs anaesthetised with Nembutal (product of Example 11), Experiments A to D; assay type: in vivo
Description: Complementary experiments carried out on anaesthetised dogs have been given below for the product of Example 11 administered intraduodenally (ID).
as §2
The arterial pressure is not altered. The pulse rate increases by at most 20% after 15 minutes and then decreases slowly (+ 14% after 30 minutes).
After 1 hour, the femoral flow rate has still been increased by 100% (from 36 to 72 ml/minute).
The α-receptors of the animal are already blocked. […] The vertebral flow rate is 20 ml/minute.
15 hr. […] 15 hr. […] 16 hr. […] 16 hr. 23 min. Propanolol: 0.3 mg/kg administered intravenously. […] The arterial pressure increases by approximately 10%. […] The pulse rate increases by 20 to 33%. […] The femoral flow rate is increased by only 25%.

adrenergic receptors [5] = assay: Inhibition/reversal of tension effects of adrenalin, intravenous (products of Examples 11 to 13); assay type: in vivo; details: i.v.
Description: the doses of CRL 40,150 from 0.5 to 4 mg/kg being administered successively.

[6] = tested on: reflex relating to occlusion of the carotids; assay: Effect on the amines and reflexes: occlusion of the carotids; details: in vivo
Excerpt: as §1

[7] = Experiment A, 15 and 30 mg/kg ID
[8] = Experiment B, second administration 30 mg/kg ID, after 1 hour
[9] = Experiment B, second administration 30 mg/kg ID, after 2 hours
[10] = Experiment B, third administration 30 mg/kg ID
[11] = Experiment D, second 15 mg/kg ID

What does the source list for `COc1cc(OC)cc(OCCN2CCN(CC3COc4ccccc4O3)CC2)c1` (centres unmarked) [Example 11, 1-[2-(1,4-Benzodioxanyl)-methyl]-4-[2-(3,5-dimethoxyphenoxy)-ethyl]-piperazine dihydrochloride]?
Effect on the amines and reflexes: adrenalin (adrenalin): reversal; Effect on the amines and reflexes: acetylcholine (acetylcholine): no change; Effect on the amines and reflexes: stimulation of the central vagus (central vagus): not changed; LD50 [1]: 60 mg/kg; tension effects of adrenalin (adrenergic receptors [2]; 5 minutes after the first dose (15 mg/kg ID)): reversed; passage through the intestinal barrier (adrenergic receptors [2]; ID): passed through the intestinal barrier; hypotension (dogs [3]): 40%; Effect on the amines and reflexes: stimulation of the peripheral vagus (peripheral vagus): not changed; arterial pressure (dogs [4]; [7]): not altered; effect on the femoral flow rate (dogs [4]; [7]): no effect; effect on the vertebral flow rate (dogs [4]; [7]): no effect; increase in pulse rate (dogs [4]; Experiment A, after 15 minutes): at most 20%; increase in pulse rate (dogs [4]; Experiment A, after 30 minutes): 14%; increase in femoral flow rate (dogs [4]; Experiment B, 15 mg/kg ID, 5 minutes): 134%; increase in femoral flow rate (dogs [4]; Experiment B, 15 mg/kg ID, 15 minutes): 194%; increase in femoral flow rate (dogs [4]; Experiment B, 15 mg/kg ID, 1 hour): 100%; femoral flow rate (dogs [4]; Experiment B, 15 mg/kg ID, 1 hour, from 36): 72 mL/min; increase in differential arterial pressure (dogs [4]; Experiment B, ID): 30%; increase in the pulse rate (dogs [4]; Experiment B, ID): ≤ 30%; decrease in average arterial pressure (dogs [4]; Experiment B, ID, at most): ≤ 18%; average arterial pressure (dogs [4]; Experiment B, ID, lowest, from 165): 135 mm Hg; femoral flow rate (dogs [4]; [8]): 104 mL/min; increase in femoral flow rate (dogs [4]; [8]): 184%; femoral flow rate (dogs [4]; [9]): 92 mL/min; increase in femoral flow rate (dogs [4]; [9]): 156%; change in femoral flow rate (dogs [4]; Experiment B, second administration 30 mg/kg ID, first 45 minutes): does not change the flow rate further; femoral flow rate (dogs [4]; [10]): 108 mL/min; increase in femoral flow rate (dogs [4]; [10]): 200%; effect on the femoral flow rate (dogs [4]; Experiment C, 15 mg/kg ID): zero; increase in vertebral flow rate (dogs [4]; Experiment C, 15 mg/kg ID, after 60 minutes): 35%; vertebral flow rate (dogs [4]; Experiment C, 15 mg/kg ID, after 60 minutes, from 20): 27 mL/min; average pressure (dogs [4]; Experiment D, 15 mg/kg ID): remaining constant; differential pressure (dogs [4]; Experiment D, 15 mg/kg ID): large increase in the differential pressure; increase in arterial pressure (dogs [4]; Experiment D, 15 mg/kg ID): approximately 10%; increase in femoral flow rate (dogs [4]; Experiment D, 15 mg/kg ID, 10 minutes): 170%; femoral flow rate (dogs [4]; Experiment D, 15 mg/kg ID, 10 minutes, from 48): 130 mL/min; increase in femoral flow rate (dogs [4]; Experiment D, 15 mg/kg ID, 30 minutes): 100%; increase in femoral flow rate (dogs [4]; Experiment D, 15 mg/kg ID, 75 minutes): 50%; increase in vertebral flow rate (dogs [4]; Experiment D, 15 mg/kg ID, first administration, at most): ≤ 16%; increase in femoral flow rate (dogs [4]; [11]): 25%; vertebral flow rate (dogs [4]; [11]): 70 mL/min; increase in vertebral flow rate (dogs [4]; Experiment D, second 15 mg/kg ID, after 15 minutes): 94%; dose from which tension effects of adrenalin are inhibited and then reversed (adrenergic receptors [5]): ≥ 0.37 mg/kg; Effect on the amines and reflexes: reflex relating to occlusion of the carotids [6]: reduced

Reference: patent publication US3959283A, “Amino-derivatives of 1,4-benzodioxan” (Laboratoire L. Lafon, priority 1974, dated 1976)
